According to patent publication US5770688A, “Method and composition for the treatment of mammalian HIV infection” (GSF-Forschungszentrum fur Umwelt und Gesundheit GmbH, priority 1989, dated 1998):
“Also recorded” adds a separate entry of the source.

Legend:
[1] = system: non-infected cells; assay: MTT toxicity/killing of non-infected cells (Biomek 1000); format: cell-based
Method: The KE37-1 (uninfected) and KE37-1/111β (infected) cell lines discussed below are commercially available from the Dr. Robert Gallows Laboratory of the NIH in the United States of America and grown in a medium of RPMI 1640 (GIBCO) and further supplemented with 10% fetal calf serum which contained approximately 100 units of penicillin, 100 μg streptomycin, and approximately 0.25 μg fungizone (Amphotericin B) per milliliter. The human mesenchymal cell lines LC5 and LC5-HIV, discussed below, are deposited with the Collection De L'Institut Pasteur of Paris, France on Mar. 9, 1989 and given the accession numbers I-842 and I-843, respectively. […]
In the present series of experiments HIV release was tested by a fully automated laboratory robot system and which is manufactured by Beckman Instruments as the Biomek 1000. […] The number of living cells are quantified by MTT, that is by a metabolic (dehydrogenase) test. […] The toxic effect is detected at the time of the experiment and not in a separate control experiment. Furthermore, the supernatant, and which contains released virus cells from the period of time which elapsed from the last wash, and which may vary from 24 hours to 7 days, is collected from the culture, and an aliquot is saved for virus quantification by employing antigen or viral enzyme reverse transcriptase (RT). […]

[2] = system: HIV; assay: relative infectious nature of culture supernatant, indirect immunoperoxidase staining of LC5 cells; format: cell-based
Method: Referring more particularly to FIGS. 1-4, melittin (Seq. ID NO:1) and its specified analogues were tested for their effect on HIV-infected T-lymphoma cells. In this regard the following cell lines were employed in the testing: KE37-1 (uninfected) and KE37-1/111S (infected with HTLV-111β). These infected cells were incubated for a period of seven days under test conditions at a temperature of 37° C. and in the presence of 5% CO2. A culture medium of RPMI 1640 (GIBCO) was employed and was further supplemented with 10% fetal calf serum which contained approximately 100 units of penicillin, 100μ of streptomycin, and approximately 0.25μ fungizone (Amphotericin B) per milliliter. […] A first test was conducted for purposes of determining the relative cell concentration as a function of the number of HIV infected cells present by employing an MTT test. The MTT test was carried out in microtiter plates according to T. Mosmann, "Rapid Colorimetric Assay for Cellular Growth and Survival: Application to Proliferation and Cytotoxicity Assays," Journal of Immunological Methods, v. 65 (1983), pp. 55-63. The MTT test was slightly modified: 10 μl of an MTT solution (5 mg/ml MTT dissolved in PBS, sterilized by filtration; MTT is 3-(4,5-Dimethylthiazole-2-yl)-2,5-diphenyltetrazolimbromide) were added to every well. […] The optical density (OD) of the solution was determined at=600 nm. […]

[3] = system: HIV-infected LC5 cells; assay: MTT toxicity/killing of HIV infected cells (Biomek 1000); format: cell-based, human
Method: The KE37-1 (uninfected) and KE37-1/111β (infected) cell lines discussed below are commercially available from the Dr. Robert Gallows Laboratory of the NIH in the United States of America and grown in a medium of RPMI 1640 (GIBCO) and further supplemented with 10% fetal calf serum which contained approximately 100 units of penicillin, 100 μg streptomycin, and approximately 0.25 μg fungizone (Amphotericin B) per milliliter. The human mesenchymal cell lines LC5 and LC5-HIV, discussed below, are deposited with the Collection De L'Institut Pasteur of Paris, France on Mar. 9, 1989 and given the accession numbers I-842 and I-843, respectively. The LC5 and LC5-HIV cell lines were grown in a medium of RPMI 1640 and supplemented with 10% fetal calf serum.
(§1) A series of experiments and which are illustrated graphically in FIGS. 6 through 34, respectively, were designed to detect two extremes. In particular the tests were designed to detect the inhibition of viral release and/or the release of virus which has a reduced ability to infect other cells. This reduced ability to infect other cells is represented, for example, by glycosylation inhibitors, the direct effect on virus release is represented by acylation inhibitors, RT inhibitors and melittin (Seq. ID NO:1). The most important feature of this experimental design, however, is to detect the toxicity of melittin. The present experiments were carried out on both the astrocytoma cell line LC5-HIV (cloned infected cells) and T-lymphocytoma cell line KE37-1/IIIβ (cloned infected cells with HTLV-IIIβ). In both cases the results were essentially identical.
(§2) In the present series of experiments HIV release was tested by a fully automated laboratory robot system and which is manufactured by Beckman Instruments as the Biomek 1000. This system performed the following steps. First, chronically infected cells (cloned) are plated in microtiter plates and grown for a period of seven days. They are then challenged by melittin (Seq. ID NO:1) during this period either for the final day or throughout the period as shown in the figures. The number of living cells are quantified by MTT, that is by a metabolic (dehydrogenase) test. The MTT test is automatically performed. The toxic effect is detected at the time of the experiment and not in a separate control experiment. Furthermore, the supernatant, and which contains released virus cells from the period of time which elapsed from the last wash, and which may vary from 24 hours to 7 days, is collected from the culture, and an aliquot is saved for virus quantification by employing antigen or viral enzyme reverse transcriptase (RT). Furthermore, an aliquot is added to a culture of uninfected cells in microtiter plates for subsequent measurement of the ability of the virus cells to reinfect these uninfected cells. In this regard, the number of infected cells is automatically quantified by an immunoperoxidase staining technique. The test results, as shown, are expressed in terms of toxicity of the melittin (MTT test); the release of HIV from the primary culture (RT test); and the ability of the released virus to infect previously uninfected cells.

[4] = system: HIV; assay: HIV release from chronically infected cells (Biomek 1000); format: cell-based; details: FIGS. 6-19
Source text: as §1, §2

Gly-Ile-Gly-Ala-Val-Leu-Lys-Val-Leu-Thr-Thr-Gly-Leu-Pro-Ala-Leu-Ile-Ser-Trp-Ile-Lys-Arg-Lys-Arg-Gln-Gln-Amide [melittin]
critical concentration at which all non-infected cells were killed [1]: 10 μg per ml
ability of the cells to infect (INF%) ([2]; 2.5 μg per ml, FIG. 2): revert substantially back to zero
supernatant infectivity ([2]; single treatment at cultivation start, subtoxic concentrations, seven days post treatment): supernatant infectivity was reduced
killing concentration compared with concentration for effect on HIV release [3]: ten times higher than the effect on HIV release
lysis of HIV-infected LC5 cells [3]: able to lyse HIV-infected LC5 cells
selectivity for infected cells, in words ([3]; FIGS. 6-19): appears to not selectively affect the infected cells
critical concentration at which all infected cells were killed ([3]; infected): 10 μg per ml
inhibition of viral cell (HIV) release from infected cells, in words [4]: inhibition of viral cell release from infected cells; also recorded: inhibited HIV release
